The target in this test is T1, SRMS (Srm) (Homo sapiens, UniProt Q9H3Y6).
T1 construct: purchased Thermo Fisher Scientific (Life Technologies) SelectScreen
Kind of test: SelectScreen Z'LYTE. The test is classed as biochemical. In a few lines:
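Percent values come from Thermo SelectScreen profiling of NU5455, combining activity and binding assays. CSF1R was run in Z'LYTE format at Km app ATP, and CAMK1 in Adapta format with ATP listed at 10.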

T1 sequence (Q9H3Y6 whole entry): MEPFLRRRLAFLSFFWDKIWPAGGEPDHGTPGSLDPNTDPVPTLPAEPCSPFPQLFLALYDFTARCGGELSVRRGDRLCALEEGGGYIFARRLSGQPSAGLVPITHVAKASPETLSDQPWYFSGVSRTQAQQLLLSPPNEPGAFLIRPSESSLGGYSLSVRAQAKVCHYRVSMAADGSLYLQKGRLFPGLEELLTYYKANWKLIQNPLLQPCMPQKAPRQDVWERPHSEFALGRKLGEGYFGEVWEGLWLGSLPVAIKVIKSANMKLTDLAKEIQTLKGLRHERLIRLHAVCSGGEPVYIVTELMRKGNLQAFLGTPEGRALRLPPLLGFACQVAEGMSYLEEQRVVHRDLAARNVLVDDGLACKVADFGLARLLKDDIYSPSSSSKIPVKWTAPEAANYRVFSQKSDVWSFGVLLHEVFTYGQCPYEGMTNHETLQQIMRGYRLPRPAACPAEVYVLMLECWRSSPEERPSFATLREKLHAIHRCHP

As to `CN(C(=O)CN1CCOCC1)c1ccc2sc3c(-c4cccc5c(=O)cc(N6CC7CCC(C6)O7)oc45)cccc3c2c1` [NU5455], the inhibition at 1 µM stood at 7.5%.

The term inhibition denotes the drop in the measured response relative to a control, in per cent. A high value points to a strong effect.

The record behind these values is article PMC6934184, “Selective DNA-PKcs inhibition extends the therapeutic index of localized radiotherapy and chemotherapy” (The Journal of Clinical Investigation, 2019).
